From patent publication US12653902B2, “Photo-immunoconjugate formulations and methods of treatment relating thereto” (University of Maryland, College Park, priority 2019, dated 2026)

Assays:
OVCAR-5 cells = experiment: Intracellular BPD uptake (BPD fluorescence, extraction and imaging); assay type: cell-based, human; settings: 24 hours post-incubation, compared to PIC and PIC-Nal
Method: For uptake and phototoxicity studies, OVCAR-5 cells (200 k cells/35-mm dish) were incubated with PIC-Nal or controls (i.e., PIC alone, no-treatment) at a fixed BPD concentration (0.25 μM) for 24 hours. For uptake study, cells were washed twice with PBS and dissolved in SOLVABLE™. The BPD fluorescence signals (Ex/Em: 435/690 nm) were acquired using a microplate reader to quantify the uptake of PIC-Nal. In another set of experiments, washed cells were fixed with 4% paraformaldehyde, and stained with DAPI. Cells were imaged with the LionHeart Imager (BioTek) using the 10× objective to visualize the BPD signal (Ex/Em: 422/690 nm) and the DAPI signal (Ex/Em: 358/461 nm). BPD fluorescence intensity was quantified using ImageJ (Schneider C A et al., NIH Image to ImageJ: 25 years of image analysis. Nat Methods 2012, 9:671-675). For phototoxicity studies, cells were irradiated with a 690 nm laser (20 J/cm^2, 150 mW/cm^2) at 24 hours post-incubation of PIC-Nal or controls. Cell viability was determined by MTT (3-(4,5-dimethylthiazol-2-yl)-2,5-diphenyltetrazolium bromide) assay (Thermo) at 24 hours post-light activation.

[1] = Photoactivity (maximal fluorescence intensity in PBS divided by that in DMSO); assay type: physicochemical; settings: maximal FI in PBS divided by maximal FI in DMSO
Method: Photo-immunoconjugate-nanoliposomes (PIC-Nal) and photo-immunoconjugate-nanoliposomal irinotecan (PIC-Nal-IRI) were synthesized via cooper-free click chemistry (FIG. 1). Briefly, azide-containing PICs were mixed overnight with DBCO-containing Nal (or DBCO-containing Nal-IRI) at 60:1 ratio. Sepharose CL-4B size exclusion chromatography was used to purify PIC-Nal and PIC-Nal-IRI. Irinotecan and BPD concentrations were determined by UV-Vis spectroscopy and established molar extinction coefficients: 20985 M^−1cm^−1 at 380 nm for irinotecan, 80500 M^−1cm^−1 at 435 nm and 34,895 M^−1 cm^−1 at 687 nm for BPD (Table 1). Conjugation efficacy was determined by the molar ratio of PIC onto the liposomes to the total PIC added initially. Singlet oxygen sensor green (SOSG, 5 μM) was used to detect singlet oxygen (^1O2) yield upon light irradiation of PIC-Nal-IRI or controls. BPD concentration is fixed at 5 μM. A microplate reader (BioTek) was used to acquire SOSG fluorescence signals (Ex/Em: 504/525 nm) before and after light irradiation (690 nm, 150 mW/cm^2, 20 J/cm^2). Photoactivity is defined as the maximal fluorescence intensity (FI) of photosensitizer in PBS divided by the maximal FI of photosensitizer in DMSO.

[2] = cited from earlier work
[3] = Absorbance at 690 nm in PBS compared to DMSO; assay type: physicochemical; settings: fixed BPD concentration

- photoactivity [1]: poor photoactivity
- loss of absorbance value at 690 nm in PBS compared to fully dissolved in DMSO [3]: ~64%
Substance: benzoporphyrin derivative [BPD]
- intracellular uptake by fluorescence imaging (OVCAR-5 cells): highest uptake
- water solubility [2]: < 50 µg/mL
